Usually IC50 stands for the concentration that inhibits the measured activity by half. High values mean a need for much substance, low ones inhibition by little substance.

The conditions of series [1]: rat, microsomes, pH 7.4.
Another series concerns the target T1, human GAL4-RORγ (Homo sapiens, UniProt P51449).
T1 sequence (P51449 269-508 limits assumed): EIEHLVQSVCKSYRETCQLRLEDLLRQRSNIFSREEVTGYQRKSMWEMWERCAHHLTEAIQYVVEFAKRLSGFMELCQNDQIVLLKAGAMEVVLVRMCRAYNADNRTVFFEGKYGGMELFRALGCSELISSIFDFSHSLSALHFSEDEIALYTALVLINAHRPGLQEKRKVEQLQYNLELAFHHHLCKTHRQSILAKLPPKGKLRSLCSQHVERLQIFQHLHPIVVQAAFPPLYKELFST
Briefly: human GAL4-RORγ reporter assay. In kind it is cell-based.

The conditions of series [2]: microsomes.
For series [3] the following is noted: mouse, microsomes, pH 7.4.
The subject of series [4] is human peripheral blood mononuclear cells (PBMCs).
For series [5] the following is noted: dog, microsomes, pH 7.4.
For series [6] the following is noted: human, microsomes, pH 7.4.
The conditions of series [7]: pH 7.4.

Where two headings read alike, the source gives them in different places.

With `CSc1ncc(Cl)c(C(=O)Nc2sc3c(c2C(=O)NCc2ccccc2)CCCC3)n1` [Compound 2, N-(3-(Benzylcarbamoyl)-4,5,6,7-tetrahydrobenzo[b]thiophen-2-yl)-5-chloro-2-(methylthio) Pyrimidine-4-carboxamide], in the series with Caco-2 cells (Caco-2), the “Caco-2 permeability in the A–B direction, grade in words” value (from here on “Caco-2 permeability … in words”) is “moderate”. In the series on Caco-2 cells (human, Caco-2, pH 7.4), the “recovery in Caco-2 permeability assay” value is listed as under 80%. Moreover, the “microsomal stability Clin” value in series [1] was 127/126/267/115 μL/min/mg. The compound further yielded a half-maximal inhibitory concentration (IC50) on human GAL4-RORγ of 0.75 nM. Moreover, the “intrinsic clearance (Clin) grade in words” value (from here on “intrinsic clearance”) in [2] is “moderate”. Moreover, the “MDR1-MDCKII permeability in the A–B direction, grade in words” value (“MDR1-MDCKII permeability … in words” below) in the series on MDR1-MDCKII cells (MDCK-MDR1) is given as “moderate”. In addition, in series [3], the “microsomal stability Clin” value was 127/126/267/115 μL/min/mg. For the same compound, in [4], the “IL17A secretion from polarized PBMCs compared to the vehicle” value (from here on “IL17A secretion … compared to the vehicle”) is reported as “decreased”, the “IL21 secretion from polarized PBMCs compared to the vehicle” value (“IL21 secretion … compared to the vehicle” below) was “decreased”, the “cell death / cell viability by flow cytometry” value is recorded as “no sign of cell death or decrease in cell viability” and the “reduction in IL17A+ cells compared to control (in words)” value (from here on “reduction in IL17A+ cells”) was “greatest reduction”. Further, in series [4], the “reduction in percentage of IL17A+ cells” value is on record as 40–60%; the “reduction of percentage of IL17A+ cells, multiple donors” value was 20–40%; the “reduction of percentage of IL21+ cells, multiple donors” value is on record as 20–40%. In [5], the “microsomal stability Clin” value is 127/126/267/115 μL/min/mg. Also, the “microsomal stability Clin” value in [6] is 127/126/267/115 μL/min/mg.
With `CSc1ncc(Cl)c(C(=O)Nc2sc3c(c2C(=O)NC2CCS(=O)(=O)C2)CCC(C)C3)n1` (centres unmarked) [Compound 3, 5-Chloro-N-(3-{[(1,1-dioxidotetrahydro-3-thienyl)amino]-carbonyl}-6-methyl-4,5,6,7-tetrahydro-1-benzothien-2-yl)-2-(methylthio)-4-pyrimidine-carboxamide], the “stability in acidic pH (in words)” value in series [7] is “unstable”. In addition, in the series on Caco-2 cells (Caco-2), the “Caco-2 permeability … in words” value was “low permeability”; the “active efflux in Caco-2” value is recorded as “active efflux”; the “effect of verapamil on efflux ratio in Caco-2” value is listed as “decreased partially”. In addition, the “microsomal stability Clin” value in [1] is 322/36/118/41 μL/min/mg. For the same compound, the IC50 against human GAL4-RORγ was found to be 2.19 nM. Besides, the “intrinsic clearance” value in series [2] was “moderate”. Besides, in the series on MDR1-MDCKII cells (MDCK-MDR1), the “MDR1-MDCKII permeability … in words” value is “moderate”; the “active efflux / P-gp substrate in MDR1-MDCKII” value is “active efflux and are P-gp substrates”; the “effect of cyclosporine A on efflux ratio in MDR1-MDCKII cells” value is given as “completely blocked”. Further, the “microsomal stability Clin” value in series [3] is on record as 322/36/118/41 μL/min/mg. Further, in [5], the “microsomal stability Clin” value is 322/36/118/41 μL/min/mg. In addition, the “microsomal stability Clin” value in [6] is 322/36/118/41 μL/min/mg.
Turning to `CCC1CCc2c(sc(NC(=O)c3ccnn3C)c2C(=O)Nc2ccccc2C)C1` (centres unmarked) [Compound 4, N-(6-Ethyl-3-{[(2-methylphenyl)amino]carbonyl}-4,5,6,7-tetrahydro-1-benzothien-2-yl)-1-methyl-1H-pyrazole-5-carboxamide], the “dependence of solubility on pH (in words)” value (“dependence of solubility” below) in series [7] was “not affected”. For the same compound, in the series on Caco-2 cells (human, Caco-2, pH 7.4), the “recovery in Caco-2 permeability assay” value is under 80%. Besides, the “microsomal stability Clin” value in series [1], in series [3], in series [5] and in series [6] was 11/22/29/24 μL/min/mg each time.
With `CC1CCc2c(sc(NC(=O)c3ccccc3F)c2C(=O)N2CCN(C)CC2)C1` (centres unmarked) [Compound 6, 2-Fluoro-N-{6-methyl-3-[(4-methyl-1-piperazinyl)carbonyl]-4,5,6,7-tetrahydro-1-benzothien-2-yl} Benzamide], the “dependence of solubility” value in series [7] is reported as “inversely proportional”. For the same compound, the “microsomal stability Clin” value in [1], in series [3], in series [5] and in [6] was 546/91/116/60 μL/min/mg throughout. In addition, the “intrinsic clearance” value in [2] is on record as “moderate”.
As for `O=C(CN1CCCCC1)Nc1sc2c(c1C(=O)NCc1ccccc1)CCCC2` [Compound 9, N-Benzyl-2-[(1-piperidinylacetyl)amino]-4,5,6,7-tetrahydro-1-benzothiophene-3-carboxamide], the “reduction in IL17A+ cells” value in series [4] is given as “greatest reduction”.
As for `CN1CCN(CC(=O)Nc2sc3c(c2C(=O)NCc2ccccc2)CCCC3)CC1` [Compound 10, N-Benzyl-2-{[(4-methyl-1-piperazinyl) Acetyl]amino}-4,5,6,7-tetrahydro-1-benzothiophene-3-carboxamide], the “Caco-2 permeability … in words” value with Caco-2 cells (Caco-2) is given as “moderate”. Besides, the “recovery in Caco-2 permeability assay” value in the series on Caco-2 cells (human, Caco-2, pH 7.4) was under 80%. Moreover, the “microsomal stability Clin” value in [1] is on record as 319/214/115/132 μL/min/mg. The compound further gave an IC50 on human GAL4-RORγ of 0.82 nM. In addition, the “intrinsic clearance” value in series [2] was “moderate”. Moreover, the “MDR1-MDCKII permeability … in words” value in the series with MDR1-MDCKII cells (MDCK-MDR1) was “moderate”. Besides, the “microsomal stability Clin” value in series [3] is reported as 319/214/115/132 μL/min/mg. Besides, in [4], the “IL17A secretion … compared to the vehicle” value is “decreased”, the “IL21 secretion … compared to the vehicle” value is “decreased”, the “reduction in IL17A+ cells” value was “greatest reduction” and the “reduction in percentage of IL17A+ cells” value is reported as 40–60%. The “microsomal stability Clin” value in series [5] is listed as 319/214/115/132 μL/min/mg. Moreover, the “microsomal stability Clin” value in [6] is listed as 319/214/115/132 μL/min/mg.
`CC1CCN(CC(=O)Nc2sc3c(c2C(=O)NCc2ccccc2)CCCC3)CC1` [Compound 11, N-Benzyl-2-{[(4-methyl-1-piperidinyl) Acetyl]amino}-4,5,6,7-tetrahydro-1-benzothiophene-3-carboxamide]: the “Caco-2 permeability … in words” value in the series with Caco-2 cells (Caco-2) is “low permeability”. For the same compound, the “Caco-2 permeability efflux verapamil” value in the series with Caco-2 cells (human, Caco-2, pH 7.4) was determined as 1.2. In the series with Caco-2 cells (human, Caco-2, pH 7.4), the “recovery in Caco-2 permeability assay” value is under 80%. Further, the “microsomal stability Clin” value in series [1], in [3], in series [5] and in series [6] was 2345/510/942/260 μL/min/mg in each case. In addition, the “intrinsic clearance” value in series [2] is “high”. Further, in the series with MDR1-MDCKII cells (MDCK-MDR1), the “MDR1-MDCKII permeability … in words” value is recorded as “low permeability”. The “MDR1-MDCKII permeability efflux cyclosporine A” value with MDR1-MDCKII cells (dog, MDCK-MDR1, pH 7.4) worked out at 0.7.
As to `CC1CCCN1C(=O)c1c(NC(=O)c2cccnc2)sc2c1CCCC2` (centres unmarked) [Compound 12, N-(3-(2-Methylpyrrolidine-1-carbonyl)-4,5,6,7-tetrahydro-benzo[b]thiophen-2-yl) Nicotinamide], the “Caco-2 permeability … in words” value with Caco-2 cells (Caco-2) was “high permeability”. Besides, the “microsomal stability Clin” value in [1], in series [3], in series [5] and in series [6] was 71/67/97/53 μL/min/mg each time. Moreover, the “MDR1-MDCKII permeability … in words” value with MDR1-MDCKII cells (MDCK-MDR1) was “high”.
As to `C[C@@H]1CCN(C(=O)c2c(NC(=O)c3cccnc3)sc3c2CCCC3)[C@H](C)C1` [Compound 13, N-(3-((2R,4R)-2,4-Dimethylpiperidine-1-carbonyl)-4,5,6,7-tetrahydrobenzo[b]thiophen-2-yl) Nicotinamide], in series [1], the “microsomal stability Clin” value is recorded as 414/404/507/369 μL/min/mg. In [2], the “intrinsic clearance” value is “moderate”. In series [3], the “microsomal stability Clin” value is 414/404/507/369 μL/min/mg. For the same compound, in [4], the “IL17A secretion … compared to the vehicle” value is recorded as “decreased”, the “IL21 secretion … compared to the vehicle” value is “decreased”, the “reduction in IL17A+ cells” value is listed as “greatest reduction” and the “reduction in percentage of IL17A+ cells” value is recorded as 40–60%. In addition, in series [5], the “microsomal stability Clin” value was 414/404/507/369 μL/min/mg. Moreover, the “microsomal stability Clin” value in [6] is on record as 414/404/507/369 μL/min/mg.
In the case of `Cn1ccnc1SCC(=O)Nc1sc2c(c1C(=O)NCc1ccccc1)CCCC2` [Compound 16, N-Benzyl-2-(2-((1-methyl-1H-imidazole-2-yl)thio)acetamido)-4,5,6,7-tetrahydrobenzo[b]thiophene-3-carboxamide], the “dependence of solubility” value in series [7] is “inversely proportional”. Further, the “microsomal stability Clin” value in series [1], in series [3], in series [5] and in [6] was 2142/954/887/332 μL/min/mg in each case. Also, the “intrinsic clearance” value in series [2] was “high”.
Consider `O=C(Nc1sc2c(c1C(=O)N1CCC(CO)C1)CCCC2)c1cccnc1` (centres unmarked) [Compound 17, N-(3-(3-(Hydroxymethyl)pyrrolidine-1-carbonyl)-4,5,6,7-tetrahydrobenzo[b]thiophen-2-yl) Nicotinamide], for which the “dependence of solubility” value in series [7] is “inversely proportional”. Besides, the “Caco-2 permeability … in words” value with Caco-2 cells (Caco-2) is on record as “moderate”. Further, the “active efflux in Caco-2” value with Caco-2 cells (Caco-2) was “active efflux”. Also, the “microsomal stability Clin” value in [1], in [3], in [5] and in series [6] was 46/23/7/11 μL/min/mg in each case. Further, the “MDR1-MDCKII permeability … in words” value in the series with MDR1-MDCKII cells (MDCK-MDR1) is reported as “moderate”. Also, in the series with MDR1-MDCKII cells (MDCK-MDR1), the “active efflux / P-gp substrate in MDR1-MDCKII” value was “active efflux and are P-gp substrates”.
